Results: the supplement of paper PMC10307832

How the values were obtained:
Test in all cases: relative viability (nuclei count vs DMSO), 5 days (fraction); higher = more cells survive
RO-3306 = compound: C1=CC2=C(C=CC(=C2)C=C3C(=O)NC(=NCC4=CC=CS4)S3)N=C1 [RO-3306]
In short: (§1)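 Vehicle-anchored 1536-well plates of lung cancer cell lines, held overnight at 37 °C, were pinned with five library-drug doses (not always all listed) spaced by √10. No medium change followed over the next 5 days, after which the cells were fixed, permeabilised and Hoechst-stained together and imaged at 4×. Nuclei were counted with MetaXpress, and viability is treated-well nuclei over vehicle-well nuclei, taken as a median across plates. Plates passed with control CV below 25% and at least one doubling.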

Foretinib = compound: COc1cc2c(Oc3ccc(NC(=O)C4(C(=O)Nc5ccc(F)cc5)CC4)cc3F)ccnc2cc1OCCCN1CCOCC1 [Foretinib] (anchor plate); settings: 0.25 µM
In short: as §1

[1] = compound: O=S(=O)(c1ccccc1)N(CC(F)(F)F)c1ccc(C(O)(C(F)(F)F)C(F)(F)F)cc1
In short: as §1

RO-3306 + Bortezomib = compound: C1=CC2=C(C=CC(=C2)C=C3C(=O)NC(=NCC4=CC=CS4)S3)N=C1 [RO-3306] + CC(C)C[C@H](NC(=O)[C@H](Cc1ccccc1)NC(=O)c1cnccn1)B(O)O [Bortezomib] (partner 0.002 µM)
In short: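 Lung cancer cell lines were seeded in 1536-well plates and dosed by pin tool the next day, with either a single drug or a fixed anchor-drug dose combined with five library-drug doses (not always all listed) spaced in √10 steps. Five days later, one step fixed the cells and stained their nuclei (final 0.05% Triton X-100, 1% formaldehyde, 1 ug/ml Hoechst), and nuclei were counted on 4× images. Relative viability is the nuclei count in treated wells divided by the count in vehicle wells, and each value is the median of duplicate plates.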

Row | Cell Line | relative viability (RO-3306; 0.01 µM) | relative viability (RO-3306; 0.03162 µM) | relative viability (RO-3306; 0.1 µM) | relative viability (RO-3306; 0.3162 µM) | relative viability (RO-3306; 1 µM) | relative viability (Foretinib) | relative viability ([1]; 0.8 µM) | relative viability ([1]; 2.53 µM) | relative viability ([1]; 8 µM) | relative viability (RO-3306 + Bortezomib; first compound 0.01 µM) | relative viability (RO-3306 + Bortezomib; first compound 0.03162 µM) | relative viability (RO-3306 + Bortezomib; first compound 0.1 µM) | relative viability (RO-3306 + Bortezomib; first compound 0.3162 µM) | relative viability (RO-3306 + Bortezomib; first compound 1 µM)
1 | NCI-H1299 | 1.06 | 1 | 1.03 | 1.04 | 1.09 | 1.06 | 1.01 | 1.02 | 0.952 | 1.07 | 1.07 | 1.04 | 1.07 | 1.05
2 | NCI-H1734 | 1.01 | 0.808 | 0.912 | 0.991 | 0.9 | 0.84 | 1.21 | 1.01 | 0.887 | 0.956 | 0.763 | 0.866 | 0.885 | 0.597
3 | COR-L23 | 1.03 | 0.892 | 1.04 | 1.04 | 1.14 | 0.949 | 1.13 | 0.921 | 0.858 | 1.03 | – | 1.1 | 1.02 | 0.772
4 | NCI-H596 | 0.947 | 0.807 | 0.871 | 1.03 | 0.94 | 0.881 | 0.952 | 0.942 | 0.908 | 0.939 | 0.917 | 1.18 | 0.812 | 0.962
5 | BEN | 0.903 | 0.888 | 0.894 | 1.03 | 0.976 | 0.668 | 0.991 | 0.895 | 0.87 | 0.795 | 0.724 | 0.867 | 0.849 | 0.747
6 | ABC-1 | 0.94 | 0.769 | 0.901 | 0.887 | 0.817 | 1.07 | 0.758 | 0.843 | 1.03 | 0.262 | 0.396 | 0.28 | 0.287 | 0.274
7 | HCC-15 | 1.13 | 0.897 | 0.998 | 1.07 | 0.992 | 1.05 | 1.04 | 0.871 | 0.861 | 1.04 | 0.804 | 1.01 | 1.06 | 0.727
8 | NCI-H460 | 1.05 | 0.956 | 0.983 | 1.02 | 1.04 | 1 | 1.06 | 0.949 | 0.943 | 1.37 | – | 1.1 | 1.34 | 0.776
9 | EMC-BAC-2 | 0.943 | 0.844 | 0.915 | 1.12 | 0.616 | 1.02 | 0.996 | 1.01 | 0.966 | 1.21 | 0.912 | 1.11 | 1.06 | 1.01
